From US20070237818A1, “Controlled-release formulation of HCV protease inhibitor and methods using the same” (priority 2005, published 2007)

Assays:
hepatitis-C virus = assay: mean viral load over time in HCV infected patients (FIG. 1); type: in vivo; conditions: various doses and regimens
Source text: Thus, in one aspect of the invention, the one or more discrete dosages are adjusted in amount to provide a highest dose or doses at a time or times corresponding to the time interval when replication of the hepatitis-C virus is highest.

[1] = solubility in water / aqueous systems; type: physicochemical
melanoma A375 tumors = melanoma A375 tumors implanted into the left ventricle of the heart; cited from earlier work

SMILES	viral load over time (hepatitis-C virus)	solubility [1] [mg/mL]	distant bone metastasis to the femur and tibia (melanoma A375 tumors)
CC(C)(C)NC(=O)N[C@H](C(=O)N1C[C@H]2[C@@H]([C@H]1C(=O)NC(CC1CCC1)C(=O)C(N)=O)C2(C)C)C(C)(C)C (stereo partly drawn) [Formula Ia, (1R,5S)—N-[3-Amino-1-(Cyclobutylmethyl)-2,3-Dioxopropyl]-3-[2(S)-[[[(1,1-Dimethylethyl)Amino]Carbonyl]Amino]-3,3-Dimethyl-1-Oxobutyl]-6,6-Dimethyl-3-Azabicyclo[3.1.0]Hexan-2(S)-Carboxamide]	decline in viral load is cyclical	~0.6	–
CN(C)C(=O)[C@H](Cc1ccccc1)NC(=O)[C@H]1O[C@@H]1C(=O)NCCc1ccccn1 [CLIK-148]	–	–	reduced
